Assay results: US8436004B2, “Bicycloaniline derivative” (MSD K.K., priority 2007, dated 2013)
Counter-ions that a name gives are not always drawn.

How the values were obtained:
[1] = tested on: Cdc2 (Cdk1) tyrosine 15-phosphorylation in NCI-H1299 cells; experiment: Cdc2 (Cdk1) tyrosine 15-phosphorylation-inhibitory effect in camptothecin-treated NCI-H1299 cells (ELISA); type: cell-based; conditions: Homo sapiens; NCI-H1299, camptothecin 200 nM 16 hours, then test compound + nocodazole 8 hours; read-out: Cdc2-Y15 Phosphorylation-Inhibitory Effect (H1299, + camptothecin) (EC50)
Text: Pharmacological Test 2 (Method of Determining Drug Potency with Cells (Cdc2 (Cdk1) Tyrosine 15-Phosphorylation-Inhibitory Effect))
Fetal bovine serum (FBS) was obtained from Morgate; media RPMI1640 and DMEM were from Invitrogen; camptothecin was from Sigma; gemcitabine was from Nippon Eli Lilly; nocodazole and protease inhibitor cocktail were from Sigma; rabbit anti-Cdc2 antibody and mouse anti-Cdc2 antibody were from Santa Cruz Biotechnology; rabbit anti-tyrosine 15-phosphorylated Cdc2 antibody and horseradish peroxidase-labeled anti-mouse IgG antibody were from Cell Signaling Technology; sure blue reserve TMB peroxidase substrate was from Kirkegaard and Perry Laboratories.
Human non-small cell lung cancer cells (NCI-H1299) and human colon cancer cells (WiDr) were obtained from American Type Culture Collection (ATCC).
In the method of using NCI-H1299 cells, the cells were suspended in a medium of 10% FBS-added RPMI1640, and the cell suspension was applied to a 96-well Nunclondelta-processed plastic plate (bought from Nunc), in an amount of 2000 cells/100 μL/well, in which the cells were incubated overnight in 5% CO2-95% air at 37° C. Camptothecin was dissolved in dimethylsulfoxide (DMSO), and diluted with a medium of 10% FBS-added RPMI1640, and then this was applied to the plate on which the cells had been previously sowed, in an amount of 50 μL/well in such a manner that the final concentration of camptothecin could be 200 nM. Then, the cells were incubated for 16 hours at 37° C. in 5% CO2-95% air. The test compound was stepwise diluted with DMSO, then diluted with 4000 nM nocodazole-containing, 10% FBS-added RPMI1640, and applied to the plate on which the camptothecin-treated cells had been sowed, in an amount of 50 μL/well. The cells were incubated for 8 hours at 37° C. in 5% CO2-95% air, then the culture was removed, and a cytolytic buffer was added to the plate in an amount of 100 μL/well, shaken at 4° C. for 2 hours, then frozen at −80° C., and thawed to give a cell solution. Cdc2 and tyrosine 15-phosphorylated Cdc2 in the cell solution were determined through enzyme-linked immunosorbent assay (ELISA), and the ratio of tyrosine 15-phosphorylated Cdc2 to Cdc2 was calculated to obtain the 50% phosphorylation-inhibitory concentration of the test compound to the cells (EC50, nM). The cytolytic buffer used herein is an aqueous solution containing 20 mM Hepes (pH 7.5), 150 mM sodium chloride, 1 mM disodium ethylenediaminetetraacetate, 0.1% polyoxyethylene (10) octylphenyl ether, 1% protease inhibitor cocktail, 1 mM dithiothreitol, 2 mM sodium orthovanadate, 10 mM sodium fluoride and 10 mM glycerol diphosphate. Cdc2 was determined through ELISA as follows: A rabbit anti-Cdc2 antibody solution, which had been diluted 200-fold with 50 mM carbonate-bicarbonate buffer (pH 9.6), was applied to a 96-well maxisorpimmuno plate (bought from Nunc), in an amount of 50 μL/well, and statically kept overnight at 4° C. so as to fix the antibody on the plate. Next, this was washed three times with phosphate-buffered physiological saline (PBS), and 5% bovine serum albumin-containing PBS (5% BSA/PBS) was added thereto in an amount of 300 μL/well, and statically kept at room temperature for 2 hours, and then again washed three times with PBS. A mouse anti-Cdc2 antibody solution that had been diluted 100-fold with 0.05% polyoxyethylene sorbitan monolaurate and 1% BSA-containing Tris-HCl-buffered physiological saline (1% BSA/TBS-T) was added to it in an amount of 50 μL/well, and the cell solution was added thereto in an amount of 5 μL/well and statically kept overnight at 4° C. Next, this was washed three times with 0.05% polyoxyethylene sorbitan monolaurate and 0.1% BSA-containing Tris-HCl-buffered physiological saline (0.1% BSA/TBS-T), and then a horseradish peroxidase-labeled anti-mouse IgG antibody solution that had been diluted 2000-fold with 1% BSA/TBS-T was added thereto in an amount of 70 μL/well, and statically kept at room temperature for 3 hours. […]

[2] = tested on: Human colon cancer cells (WiDr); experiment: Checkpoint-escape effect in gemcitabine-treated WiDr cells (phosphorylated histone H3-positive cells); type: cell-based; conditions: gemcitabine 100 nM 24 hours, then test compound + nocodazole 8 hours
Text: Pharmacological Test 3 (Method of Determining Drug Potency with Cells (Checkpoint-Escape Effect))
Fetal bovine serum (FBS) was obtained from Morgate; a medium of DMEM was from Invitrogen; gemcitabine was from Nippon Eli Lilly; nocodazole and 4′,6-diamidino-2-phenylindole were from Sigma; rabbit anti-phosphorylated histone H3 antibody was from Upstate; and fluorescence-labeled (Alexa Fluor 488) anti-rabbit IgG antibody was from Molecular Probe.
Human colon cancer cells (WiDr) were obtained from American Type Culture Collection (ATCC).
The cells were suspended in a medium of 10% FBS-added DMEM, and the cell suspension was applied to a poly-D-lysine-coated 96-well plastic plate (bought from Becton Dickinson) in an amount of 2000 cells/100 μL/well, in which the cells were incubated overnight in 5% CO2-95% air at 37° C. […] Next, this was washed with PBS, and a solution containing 4′,6-diamidino-2-phenylindole that had been diluted with 1% BSA/PBS to have a concentration 10 μg/mL and a fluorescence-labeled (Alexa Fluor 488) anti-rabbit IgG antibody that had been diluted 250-fold was added to it in an amount 50 μL/well, and reacted in a dark place at room temperature for 60 minutes. […]

EC50 [1] | EC50 [2] | SMILES
19 nM | 37 nM | CN1Cc2cc(Nc3ncc4c(=N)n(-c5c(Cl)cccc5Cl)c(=O)[nH]c4n3)ccc2C2(CC2)C1 [Example 1, 3-(2,6-dichlorophenyl)-4-imino-7-[(2′-methyl-2′,3′-dihydro-1′H-spiro[cyclopropane-1,4′-isoquinolin]-7′-yl)amino]-3,4-dihydropyrimido[4,5-d]pyrimidin-2(1H)-one dihydrochloride]
27 nM | – | CN1Cc2cc(Nc3ncc4c(=N)n(-c5c(Cl)cccc5Cl)c(=O)[nH]c4n3)ccc2C(C)(C)C1 [Example 2, 3-(2,6-dichlorophenyl)-4-imino-7-{[2,4,4-trimethyl-1,2,3,4-tetrahydroisoquinolin-7-yl]amino}-3,4-dihydropyrimido[4,5-d]pyrimidin-2(1H)-one]
17 nM | – | CN1Cc2cc(Nc3ncc4c(=N)n(-c5c(Cl)cccc5Cl)c(=O)[nH]c4n3)ccc2C1(C)C [Example 7, 3-(2,6-dichlorophenyl)-4-imino-7-[(1,1,2-trimethyl-2,3-dihydro-1H-isoindol-5-yl)amino]-3,4-dihydropyrimido[4,5-d]pyrimidin-2(1H)-one]
